This is an account of results in patent publication US8859573B2, “Pyrimidinone and pyridinone compounds for use in the treatment of diseases or conditions mediated by Lp-PLA2” (Glaxo Group Limited, priority 2010, dated 2014).

Counter-ions that a name gives are not always drawn.

The assay concerns the target T1, Lp-PLA2 from plasma (Homo sapiens, UniProt Q13093).
T1 construct: from tissue; host or cells: pooled human plasma
T1 sequence (Q13093 22-441): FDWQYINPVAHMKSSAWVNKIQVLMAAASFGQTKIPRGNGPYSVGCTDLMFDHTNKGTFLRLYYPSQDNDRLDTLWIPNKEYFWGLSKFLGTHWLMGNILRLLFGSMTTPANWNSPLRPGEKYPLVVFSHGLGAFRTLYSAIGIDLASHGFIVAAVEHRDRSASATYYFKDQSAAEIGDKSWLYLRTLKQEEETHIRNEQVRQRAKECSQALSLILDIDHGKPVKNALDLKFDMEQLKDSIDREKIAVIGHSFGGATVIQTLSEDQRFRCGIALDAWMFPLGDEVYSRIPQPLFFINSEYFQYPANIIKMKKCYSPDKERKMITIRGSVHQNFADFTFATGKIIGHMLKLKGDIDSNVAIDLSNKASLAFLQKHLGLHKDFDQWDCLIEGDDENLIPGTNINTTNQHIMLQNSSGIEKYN
Kind of assay: Lp-PLA2 human plasma assay (Thio-PAF assay). The settings on record: pooled human plasma; read-out: pIC50 values in the thio-PAF assay (converted). It is filed as biochemical. From the text:
(3) Lipoprotein-Associated Phospholipase A2 (Lp-PLA2) Human Plasma Assay (Also Referred to as “Thio-PAF Assay”)
The human plasma assay utilizes a thioester analog of PAF (phosphatidylcholine), where hydrolysis yields to the formation of a phospholipid containing a free thiol group. The amount of thiol is quantitated continuously by reacting with CPM (7-diethylamino-3-(4′-maleimidylphenyl)-4-methylcoumarin), a maleimide which increases in fluoresence after Michael addition of thiols. This assay may detect the activity of Lp-PLA2 from plasma, as determined by specific inhibition by Lp-PLA2 inhibitors.
The thio-PAF assay was run as a quenched 15 μL assay. Compounds source plate was prepared by making 1:3 (by volume) serial dilution of the compounds into pure DMSO on 384-well microplate. 0.01 μL of compounds on compound source plate were transferred to 384 well Greiner 784076 (black) low-volume plates by ECHO liquid dispenser. 8 μL pooled human plasma, which was previously aliquoted and frozen, was added. Plates were centrifuged for 10 sec at 500 rpm. After 30 minutes preincubation, 2 μL of substrate (2.5 mM thio-PAF, 3.2 mM NEM (N-ethylmaleimide) [made fresh daily in DMSO], and 32 μM CPM [from a DMSO stock] in assay buffer of 50 mM HEPES, pH7.4, 150 mM NaCl, 1 mM CHAPS was added to 384 well Greiner 784076 (black) low-volume plates by BRAVO liquid handling station. Plates were centrifuged for 10 sec at 500 rpm. Plate was covered to protect from light and incubated for 2 min at room temperature. Reaction was quenched with 5 μL of 5% aqueous trifluoroacetic acid (TFA). Plates were covered to protect from light and incubated for 40 min at room temperature. Plates were read at ex: 380/em: 485 using-Envision microplate reader. PIC50 data, curve and QC analysis was conducted by using XLFit module in Excel.
With `CCn1cc(F)c(OCCc2ccc(Oc3ccc(Cl)c(C(F)(F)F)c3)nc2)nc1=O` [Example 52, 4-(2-(6-(4-chloro-3-(trifluoromethyl)phenoxy)pyridin-3-yl)ethoxy)-1-ethyl-5-fluoropyrimidin-2(1H)-one], the IC50 is at most 1000 nM.

For `COc1ncc(Cn2cc(F)c(OCCc3ccc(Oc4ccc(Cl)c(C(F)(F)F)c4)cc3)nc2=O)cn1` [Example 36, 4-(4-(4-chloro-3-(trifluoromethyl)phenoxy)phenethoxy)-5-fluoro-1-((2-methoxypyrimidin-5-yl)methyl)pyrimidin-2(1H)-one], the IC50 was at most 100 nM.

With `O=c1nc(OCc2ccc(Oc3ccc(Cl)c(C(F)(F)F)c3)cn2)ccn1Cc1cccnc1` [Example 14, 4{[(5-{[4-Chloro-3-(trifluoromethyl)phenyl]oxy}-2-pyridinyl)methyl]oxy}-1-(3-pyridinylmethyl)-2(1H)-pyrimidinone], the IC50 is at most 100 nM.

As to `Cn1cc(Cn2cc(F)c(OCCc3ccc(Oc4ccc(Cl)c(C(F)(F)F)c4)nc3)nc2=O)cn1` [Example 40, 4-(2-(6-(4-chloro-3-(trifluoromethyl)phenoxy)pyridin-3-yl)ethoxy)-5-fluoro-1-((1-methyl-1H-pyrazol-4-yl)methyl)pyrimidin-2(1H)-one], the IC50 is at most 100 nM.

Turning to `Cn1cc(Cn2cc(F)c(OCCc3ccc(Oc4ccc(Cl)c(C(F)(F)F)c4)cn3)nc2=O)cn1` [Example 55, 4-(2-(5-(4-chloro-3-(trifluoromethyl)phenoxy)pyridin-2-yl)ethoxy)-5-fluoro-1-((1-methyl-1H-pyrazol-4-yl)methyl)pyrimidin-2(1H)-one], the IC50 is at most 100 nM.

Take `Cn1cc(Cn2ccc(CCc3ccc(Oc4cccc(C(F)(F)F)c4)c(C#N)c3)nc2=O)cn1` [Example 20, 5-(2-{1-[(1-Methyl-1H-pyrazol-4-yl)methyl]-2-oxo-1,2-dihydro-4-pyrimidinyl}ethyl)-2-{[3-(trifluoromethyl)phenyl]oxy}benzonitrile]: the IC50 is at most 1000 nM.

On to `Cn1cc(Cn2cc(Cl)c(OCCc3cnc(Oc4ccc(F)c(C(F)(F)F)c4)c(F)c3)nc2=O)cn1` [Example 38, 5-chloro-4-(2-(5-fluoro-6-(4-fluoro-3-(trifluoromethyl)phenoxy)pyridin-3-yl)ethoxy)-1-((1-methyl-1H-pyrazol-4-yl)methyl)pyrimidin-2(1H)-one], for which the IC50 was at most 100 nM.

For the molecule `Cn1cc(Cn2cc(F)c(OCCc3cnc(Oc4ccc(F)c(C(F)(F)F)c4)c(F)c3)nc2=O)cn1` [Example 42, 5-fluoro-4-(2-(5-fluoro-6-(4-fluoro-3-(trifluoromethyl)phenoxy)pyridin-3-yl)ethoxy)-1-((1-methyl-1H-pyrazol-4-yl)methyl)pyrimidin-2(1H)-one], the IC50 is at most 100 nM.

Regarding `Cn1cc(Cn2ccc(OCc3ccc(Oc4ccc(Cl)c(C(F)(F)F)c4)c(C#N)c3)cc2=O)cn1` [Example 22, 2-{[4-Chloro-3-(trifluoromethyl)phenyl]oxy}-5-[({1-[(1-methyl-1H-pyrazol-4-yl)methyl]-2-oxo-1,2-dihydro-4-pyridinyl}oxy)methyl]benzonitrile], the IC50 is at most 1000 nM.

Turning to `COc1ncc(Cn2cc(F)c(OCCc3ccc(Oc4cccc(C(F)(F)F)n4)cc3)nc2=O)cn1` [Example 65, 5-fluoro-1-((2-methoxypyrimidin-5-yl)methyl)-4-(4-((6-(trifluoromethyl)pyridin-2-yl)oxy)phenethoxy)pyrimidin-2(1H)-one], the IC50 is at most 1000 nM.

`COc1ncc(Cn2cc(Cl)c(OCCc3cnc(Oc4ccc(F)c(C(F)(F)F)c4)c(F)c3)nc2=O)cn1` [Example 37, 5-chloro-4-(2-(5-fluoro-6-(4-fluoro-3-(trifluoromethyl)phenoxy)pyridin-3-yl)ethoxy)-1-((2-methoxypyrimidin-5-yl)methyl)pyrimidin-2(1H)-one]: the IC50 was at most 100 nM.

For the molecule `Cn1cc(Cn2ccc(OCCc3ccc(Oc4ccc(Cl)c(C(F)(F)F)c4)cc3)cc2=O)cn1` [Example 24, 4-{[2-(4-{[4-Chloro-3-(trifluoromethyl)phenyl]oxy}phenyl)ethyl]oxy}-1-[(1-methyl-1H-pyrazol-4-yl)methyl]-2(1H)-pyridinone], the IC50 is at most 1000 nM.

For `Cn1cc(Cn2cc(Cl)c(OCCc3ccc(Cc4ccc(Cl)c(C(F)(F)F)c4)cc3)nc2=O)cn1` [Example 44, 5-chloro-4-(4-(4-chloro-3-(trifluoromethyl)benzyl)phenethoxy)-1-((1-methyl-1H-pyrazol-4-yl)methyl)pyrimidin-2(1H)-one], the IC50 was at most 100 nM.

Take `COc1ncc(Cn2cc(F)c(OCCc3cnc(Oc4ccc(Cl)c(C(F)(F)F)c4)c(F)c3)nc2=O)cn1` [Example 34, 4-(2-(6-(4-chloro-3-(trifluoromethyl)phenoxy)-5-fluoropyridin-3-yl)ethoxy)-5-fluoro-1-((2-methoxypyrimidin-5-yl)methyl)pyrimidin-2(1H)-one]: the IC50 is at most 100 nM.

Turning to `Cn1cc(Cn2ccc(OCc3ccc(Oc4ccc(Cl)c(C(F)(F)F)c4)cn3)nc2=O)cn1` [Example 15, 4-{[(5-{[4-Chloro-3-(trifluoromethyl)phenyl]oxy}-2-pyridinyl)methyl]oxy}-1-[(1-methyl-1H-pyrazol-4-yl)methyl]-2(1H)-pyrimidinone], the IC50 is at most 100 nM.

`Cn1cc(Cn2ccc(OCc3ccc(Oc4ccc(Cl)c(C(F)(F)F)c4)c(C#N)c3)nc2=O)cn1` [Example 6, 2-{[4-Chloro-3-(trifluoromethyl)phenyl]oxy}-5-[({1-[(1-methyl-1H-pyrazol-4-yl)methyl]-2-oxo-1,2-dihydro-4-pyrimidinyl}oxy)methyl]benzonitrile]: the IC50 was at most 100 nM.

In the case of `COc1ncc(Cn2cc(F)c(OCCc3cnc(Oc4ccc(F)c(C(F)(F)F)c4)c(F)c3)nc2=O)cn1` [Example 43, 5-fluoro-4-(2-(5-fluoro-6-(4-fluoro-3-(trifluoromethyl)phenoxy)pyridin-3-yl)ethoxy)-1-((2-methoxypyrimidin-5-yl)methyl)pyrimidin-2(1H)-one], the IC50 was at most 100 nM.

With `N#Cc1cc(CCOc2ccn(Cc3cccnc3)c(=O)n2)ccc1Oc1ccc(Cl)c(C(F)(F)F)c1` [Example 7, 2-{[4-Chloro-3-(trifluoromethyl)phenyl]oxy}-5-(2-{[2-oxo-1-(3-pyridinylmethyl)-1,2-dihydro-4-pyrimidinyl]oxy}ethyl)benzonitrile trifluoroacetate], the IC50 was at most 100 nM.

As to `Cn1cc(Cn2ccc(OCCc3ccc(Oc4ccc(Cl)c(C(F)(F)F)c4)cn3)nc2=O)cn1` [Example 16, 4-{[2-(5-{[4-Chloro-3-(trifluoromethyl)phenyl]oxy}-2-pyridinyl)ethyl]oxy}-1-[(1-methyl-1H-pyrazol-4-yl)methyl]-2(1H)-pyrimidinone], the IC50 was at most 100 nM.

For the molecule `N#Cc1cc(COc2cc[nH]c(=O)n2)ccc1Oc1ccc(Cl)c(C(F)(F)F)c1` [Example 3, 2-(4-Chloro-3-(trifluoromethyl)phenoxy)-5-(((2-oxo-2,3-dihydropyrimidin-4-yl)oxy)methyl)benzonitrile], the IC50 is above 10000 nM.

For the molecule `Cn1cc(Cn2cc(F)c(OCCc3ccc(Oc4cccc(C(F)(F)F)n4)cc3)nc2=O)cn1` [Example 64, 5-fluoro-1-((1-methyl-1H-pyrazol-4-yl)methyl)-4-(4-((6-(trifluoromethyl)pyridin-2-yl)oxy)phenethoxy)pyrimidin-2(1H)-one], the IC50 was at most 1000 nM.

`N#Cc1cc(CNc2ccn(Cc3cccnc3)c(=O)n2)ccc1Oc1ccc(Cl)c(C(F)(F)F)c1` [Example 19, 2-{[4-Chloro-3-(trifluoromethyl)phenyl]oxy}-5-({[2-oxo-1-(3-pyridinylmethyl)-1,2-dihydro-4-pyrimidinyl]amino}methyl)benzonitrile]: the IC50 was at most 100 nM.

Turning to `Cn1cc(Cn2cc(F)c(OCCc3ccc(Oc4ccc(F)c(C(F)(F)F)c4)nc3)nc2=O)cn1` [Example 39, 5-fluoro-4-(2-(6-(4-fluoro-3-(trifluoromethyl)phenoxy)pyridin-3-yl)ethoxy)-1-((1-methyl-1H-pyrazol-4-yl)methyl)pyrimidin-2(1H)-one], the IC50 is at most 100 nM.

As to `Cn1cc(Cn2cc(F)c(OCCc3ccc(Oc4ccc(Cl)c(C(F)(F)F)c4)cc3)nc2=O)cn1` [Example 29, 4-{[2-(4-{[4-Chloro-3-(trifluoromethyl)phenyl]oxy}phenyl)ethyl]oxy}-5-fluoro-1-[(1-methyl-1H-pyrazol-4-yl)methyl]-2(1H)-pyrimidinone], the IC50 was at most 100 nM.
